The structures appear in SMILES notation. Converted amounts (≈) assume the structure as drawn.

The conditions of series [1]: in vivo; cited from earlier work.
A short description of series [2]: physchem. To be noted: water, thermodynamic from solid.
Method: Analyses were performed using the Perkin Elmer Lambda 5 UV/V is Spectrophotometer.
Two sets of standards were prepared by serial dilution of:
1. 10% poloxamer P407/1% Propofol solution in water.
2. 1% Propofol solution in ethanol (EtOH).
Dilutions were performed with water and EtOH respectively. The standards were further diluted one hundred fold prior to measurement of their UV absorption spectra recorded.

For the molecule `CC(C)c1cccc(C(C)C)c1O` [Propofol, 2,6-bis(1-methylethyl)phenol; 2,6-diisopropylphenol], in series [1], the “dose required for long term infusion for anaesthesia” value was 4-12 mg/kg per hour and the “time of maximum effect after dosing” value is “within about one minute”. For the same molecule, the solubility (thermodynamic) in series [2] is around 1000 µM (≈ 178 µg/mL).

Broadly, the thermodynamic solubility is the concentration in solution at equilibrium with solid.

These data come from patent US20040253277A1, “Anaesthetic formulations of propofol” (priority 2001, published 2004).
